Source: patent US20190046552A1, “COMPOSITIONS AND METHODS FOR THE TREATMENT OF HCV INFECTION” (priority 2015, published 2019)
Like-named read-outs stand apart in the source and are kept apart here.

Columns and labels:
[1] = Part B (MAD): plasma PK of Formula (IIa) and its metabolites after once-daily oral Formula (IIa) for 7 days, fasted; assay type: in vivo, human; conditions: for Cmax / half-life / AUC(0-t) / Tmax / AUC(0-inf): human, in vivo
Protocol: Part B was a blinded, randomized, placebo-controlled MAD study consisting of four cohorts of eight subjects randomized 6:2 to receive Formula (IIa) or placebo. […] To control for the possible effect of the IL28b genotype, the number of subjects with CC alleles was capped at three per cohort.
(§1) The starting dose was determined by the SRC based on review of all safety and any available PK/PD data from Part A. All subjects were dosed in the fasted state with Formula (IIa) daily, from Day 1 until […]. All subjects had nothing by mouth other than water for at least 10 hours prior to daily dosing and for 4 hours thereafter. In Part B, all subjects were administered the study medication orally with approximately 240 mL of water at the same time every day (+/−10 minutes).
A subset of blood samples shown in Table 3 above was used for the PK evaluation of plasma trough concentrations (Table 4). In addition, blood sample assessment of antiviral response was collected according to the following sampling schedule for Part B (Table 4).
All plasma PK calculations were performed using actual time points calculated relative to the time of last drug administration.
PK analysis was conducted for all enrolled subjects that received any dose of Formula (IIa) with sufficient plasma sample data to assess PK parameters. […] Data analysis was performed using a validated version of WinNonlin® Enterprise (Version 5.2) software, and summary tables and figures were generated using a validated version of WinNonlin® Autopilot™ (Version 1.1.1) and other reporting tools, including SigmaPlot®.

[2] = tested on: HCV replicon cell line AVA5 [sub-genomic (CON1), genotype 1b]; assay: 3-day HCV replicon antiviral assay (blot hybridization of intracellular HCV RNA), alone and with sofosbuvir; assay type: cell-based; conditions: Hepatitis C virus, Ava5, 72 h, read-out: IC50 (intracellular HCV RNA)
HCV RNA = assay: Part B (MAD): antiviral response (HCV RNA viral load) in treatment naive subjects with chronic HCV infection; assay type: in vivo, human
Source text: Part B was a blinded, randomized, placebo-controlled MAD study consisting of four cohorts of eight subjects randomized 6:2 to receive Formula (IIa) or placebo. A total of 30 treatment naïve subjects with CHC infection were enrolled in and a total of 29 subjects (22 subjects administered Formula (IIa) and 7 subjects administered placebo) completed Part B of the study. One subject administered placebo withdrew from the study on Day 2. Subjects infected with HCV-1 and HCV-3 genotypes were enrolled, and no subjects infected with HCV-2 participated in the study. To control for the possible effect of the IL28b genotype, the number of subjects with CC alleles was capped at three per cohort.
as §1
A subset of blood samples shown in Table 3 above was used for the PK evaluation of plasma trough concentrations (Table 4). […]

CO[C@H]1C(OP(=O)(OC[C@H]2O[C@@H](n3cnc4c(N)ncnc43)CC2O)SCOC(=O)OC(C)C)[C@@H](CO)O[C@H]1n1ccc(=O)[nH]c1=O (some centres unmarked) [Formula (IIa)]
Cmin ([1]; 200 mg Formula (IIa) QD oral, fasted, Day 7, plasma, arithmetic mean (CV %)): 0.00 (NC) ng/ml | Tmin ([1]; 200 mg Formula (IIa) QD oral, fasted, Day 7, plasma, median (min, max)): 0.00 h | Cmin ([1]; 400 mg Formula (IIa) QD oral, fasted, Day 7, plasma, arithmetic mean (CV %)): 0.00 (NC)^ ng/ml | Tmin ([1]; 400 mg Formula (IIa) QD oral, fasted, Day 7, plasma, median (min, max)): 0.00 h | Cmin ([1]; 900 mg Formula (IIa) QD oral, fasted, Day 7, plasma, arithmetic mean (CV %)): 0.00 (NC) ^ ng/ml | Tmin ([1]; 900 mg Formula (IIa) QD oral, fasted, Day 7, plasma, median (min, max)): 0.00 h | Cmax ([1]; 200 to 900 mg Formula (IIa), Days 1 and 7, read-out: Cmax range): 0.531 to 6.66 ng/mL | half-life ([1]; Day 1, 400 mg and 900 mg QD doses, read-out: mean plasma t1/2 range): 57.8 to 63 min | AUC(0-t) ([1]; Day 1, 200-900 mg Formula (IIa) QD, read-out: mean AUC0-24 range across dose levels): 0.512 to 7.91 ng·h/mL | Cmax ([1]; Day 1, 200-900 mg Formula (IIa) QD, read-out: mean Cmax range across dose levels): 0.531 to 3.75 ng/mL | Tmax ([1]; Day 1, 200-900 mg Formula (IIa) QD, read-out: median Tmax, range across dose levels): 1 to 1.51 h | half-life ([1]; Day 7, 400 mg and 900 mg QD doses, read-out: mean plasma t1/2 range): 41 to 64.2 min | AUC(0-t) ([1]; Day 7, 200-900 mg Formula (IIa) QD, read-out: mean AUC0-24 range across dose levels): 0.77 to 13.7 ng·h/mL | Cmax ([1]; Day 7, 200-900 mg Formula (IIa) QD, read-out: mean Cmax range across dose levels): 0.885 to 6.66 ng/mL | Tmax ([1]; Day 7, 200-900 mg Formula (IIa) QD, read-out: median Tmax, range across dose levels): 1 to 1.28 h | half-life ([1]; Days 1 and 7, across dose levels, read-out: terminal half-life (t1/2), range of means): 41 to 64.2 min | AUC(0-t) ([1]; po, 200 mg, 200 mg Formula (IIa) QD oral, fasted, Day 1, plasma, arithmetic mean (CV %), read-out: AUC0-24): 0.512 ng·h/mL | AUC(0-t) ([1]; po, 200 mg, 200 mg Formula (IIa) QD oral, fasted, Day 1, plasma, arithmetic mean (CV %), read-out: AUC0-t): 0.393 ng·h/mL | Cmax ([1]; po, 200 mg, 200 mg Formula (IIa) QD oral, fasted, Day 1, plasma, arithmetic mean (CV %), read-out: Cmax): 0.531 ng/mL | Tmax ([1]; po, 200 mg, 200 mg Formula (IIa) QD oral, fasted, Day 1, plasma, median (min, max), read-out: Tmax): 1 h | AUC(0-t) ([1]; po, 200 mg, 200 mg Formula (IIa) QD oral, fasted, Day 7, plasma, arithmetic mean (CV %), footnote: AUC0-24 = AUC0-t on Day 7, read-out: AUC0-24): 0.77 ng·h/mL | AUC(0-t) ([1]; po, 200 mg, 200 mg Formula (IIa) QD oral, fasted, Day 7, plasma, arithmetic mean (CV %), read-out: AUC0-t): 1.41 ng·h/mL | Cmax ([1]; po, 200 mg, 200 mg Formula (IIa) QD oral, fasted, Day 7, plasma, arithmetic mean (CV %), read-out: Cmax): 0.885 ng/mL | Tmax ([1]; po, 200 mg, 200 mg Formula (IIa) QD oral, fasted, Day 7, plasma, median (min, max), read-out: Tmax): 1 h | AUC(0-t) ([1]; po, 400 mg, 400 mg Formula (IIa) QD oral, fasted, Day 1, plasma, arithmetic mean (CV %), read-out: AUC0-24): 7.91 ng·h/mL | AUC(0-t) ([1]; po, 400 mg, 400 mg Formula (IIa) QD oral, fasted, Day 1, plasma, arithmetic mean (CV %), read-out: AUC0-t): 3.27 ng·h/mL | Cmax ([1]; po, 400 mg, 400 mg Formula (IIa) QD oral, fasted, Day 1, plasma, arithmetic mean (CV %), read-out: Cmax): 2.13 ng/mL | half-life ([1]; po, 400 mg, 400 mg Formula (IIa) QD oral, fasted, Day 1, plasma, arithmetic mean (CV %), read-out: t1/2 (converted)): 63 min | Tmax ([1]; po, 400 mg, 400 mg Formula (IIa) QD oral, fasted, Day 1, plasma, median (min, max), read-out: Tmax): 1.51 h | AUC(0-t) ([1]; po, 400 mg, 400 mg Formula (IIa) QD oral, fasted, Day 7, plasma, arithmetic mean (CV %), footnote: AUC0-24 = AUC0-t on Day 7, read-out: AUC0-24): 2.71 ng·h/mL | AUC(0-t) ([1]; po, 400 mg, 400 mg Formula (IIa) QD oral, fasted, Day 7, plasma, arithmetic mean (CV %), read-out: AUC0-t): 3.1 ng·h/mL | Cmax ([1]; po, 400 mg, 400 mg Formula (IIa) QD oral, fasted, Day 7, plasma, arithmetic mean (CV %), read-out: Cmax): 2.52 ng/mL | half-life ([1]; po, 400 mg, 400 mg Formula (IIa) QD oral, fasted, Day 7, plasma, arithmetic mean (CV %), read-out: t1/2 (converted)): 41 min | Tmax ([1]; po, 400 mg, 400 mg Formula (IIa) QD oral, fasted, Day 7, plasma, median (min, max), read-out: Tmax): 1.28 h | AUC(0-t) ([1]; po, 900 mg, 900 mg Formula (IIa) QD oral, fasted, Day 1, plasma, arithmetic mean (CV %), read-out: AUC0-24): 4.58 ng·h/mL | AUC(0-t) ([1]; po, 900 mg, 900 mg Formula (IIa) QD oral, fasted, Day 1, plasma, arithmetic mean (CV %), read-out: AUC0-t): 5.31 ng·h/mL | Cmax ([1]; po, 900 mg, 900 mg Formula (IIa) QD oral, fasted, Day 1, plasma, arithmetic mean (CV %), read-out: Cmax): 3.75 ng/mL | half-life ([1]; po, 900 mg, 900 mg Formula (IIa) QD oral, fasted, Day 1, plasma, arithmetic mean (CV %), read-out: t1/2 (converted)): 57.8 min | Tmax ([1]; po, 900 mg, 900 mg Formula (IIa) QD oral, fasted, Day 1, plasma, median (min, max), read-out: Tmax): 1.04 h | AUC(0-t) ([1]; po, 900 mg, 900 mg Formula (IIa) QD oral, fasted, Day 7, plasma, arithmetic mean (CV %), footnote: AUC0-24 = AUC0-t on Day 7, read-out: AUC0-24): 13.7 ng·h/mL | AUC(0-t) ([1]; po, 900 mg, 900 mg Formula (IIa) QD oral, fasted, Day 7, plasma, arithmetic mean (CV %), read-out: AUC0-t): 9.39 ng·h/mL | Cmax ([1]; po, 900 mg, 900 mg Formula (IIa) QD oral, fasted, Day 7, plasma, arithmetic mean (CV %), read-out: Cmax): 6.66 ng/mL | half-life ([1]; po, 900 mg, 900 mg Formula (IIa) QD oral, fasted, Day 7, plasma, arithmetic mean (CV %), read-out: t1/2 (converted)): 64.2 min | Tmax ([1]; po, 900 mg, 900 mg Formula (IIa) QD oral, fasted, Day 7, plasma, median (min, max), read-out: Tmax): 1.25 h | AUC(0-inf) ([1]; 400 mg Formula (IIa) QD oral, fasted, Day 1, plasma, arithmetic mean (CV %)): 8.04 ng·h/mL | AUC(0-inf) ([1]; 900 mg Formula (IIa) QD oral, fasted, Day 1, plasma, arithmetic mean (CV %)): 7.25 ng·h/mL | mean trough levels ([1]; multiple once daily oral Formula (IIa) QD for 7 days, fasted): BLQ | IC50 [2]: 31.7 nM | Peak individual viral load drop (HCV RNA; 200 mg Formula (IIa) QD): 1.5 log10 | Peak individual viral load drop (HCV RNA; 400 mg Formula (IIa) QD): 1.9 log10
